The target of this assay is T1, human mGluR5 (Homo sapiens, UniProt P41594).
T1 construct: expressed in transfected cells; host or cells: HEK293 cells stably expressing rat GLAST (EAAT1), stably transfected with pcDNAzeo3.1 carrying synthetic human mGluR5 DNA; zeocin-selected single clones
T1 sequence (P41594 21-1212): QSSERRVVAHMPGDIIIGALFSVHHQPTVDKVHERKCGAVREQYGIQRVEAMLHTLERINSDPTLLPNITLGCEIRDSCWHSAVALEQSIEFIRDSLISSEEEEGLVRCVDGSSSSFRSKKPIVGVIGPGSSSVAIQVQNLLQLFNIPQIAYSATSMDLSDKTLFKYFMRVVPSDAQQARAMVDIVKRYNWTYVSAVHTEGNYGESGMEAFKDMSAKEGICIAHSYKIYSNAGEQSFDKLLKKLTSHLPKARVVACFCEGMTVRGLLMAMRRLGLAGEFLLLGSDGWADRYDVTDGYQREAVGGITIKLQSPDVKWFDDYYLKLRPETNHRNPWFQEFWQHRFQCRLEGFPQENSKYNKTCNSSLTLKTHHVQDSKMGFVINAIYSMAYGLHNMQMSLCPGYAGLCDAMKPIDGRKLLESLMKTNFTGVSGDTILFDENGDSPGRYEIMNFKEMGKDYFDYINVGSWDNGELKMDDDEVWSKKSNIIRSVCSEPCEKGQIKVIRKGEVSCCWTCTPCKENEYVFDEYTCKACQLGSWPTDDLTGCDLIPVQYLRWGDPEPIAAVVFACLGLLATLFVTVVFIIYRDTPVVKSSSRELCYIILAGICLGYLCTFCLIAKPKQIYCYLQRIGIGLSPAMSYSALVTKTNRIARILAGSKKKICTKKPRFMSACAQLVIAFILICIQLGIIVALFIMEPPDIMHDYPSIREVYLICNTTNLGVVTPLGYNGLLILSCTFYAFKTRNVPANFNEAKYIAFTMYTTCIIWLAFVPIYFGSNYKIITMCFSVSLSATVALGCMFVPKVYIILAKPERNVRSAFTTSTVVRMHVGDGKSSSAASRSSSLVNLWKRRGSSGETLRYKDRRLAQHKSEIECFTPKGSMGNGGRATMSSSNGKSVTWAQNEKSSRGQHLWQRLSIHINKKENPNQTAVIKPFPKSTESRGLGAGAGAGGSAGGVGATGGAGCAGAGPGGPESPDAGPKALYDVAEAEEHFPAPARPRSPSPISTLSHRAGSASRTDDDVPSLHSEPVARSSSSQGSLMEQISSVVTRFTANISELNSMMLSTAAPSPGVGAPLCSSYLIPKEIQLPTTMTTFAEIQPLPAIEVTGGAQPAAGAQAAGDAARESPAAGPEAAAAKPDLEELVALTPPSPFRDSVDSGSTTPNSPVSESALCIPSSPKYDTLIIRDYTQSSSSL
The experiment in a line: In vitro cell-based FLIPR calcium assay for positive modulation of the activation of mGluR5 by glutamate (PAM EC50). To be noted: HEK293/GLAST cells expressing recombinant human mGluR5; FLIPR calcium signal; glutamate added at its EC20; read-out: mGluR5 PAM EC50. The procedure, abridged:
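PAM activity was measured as FLIPR calcium fluorescence in the presence of an EC20 glutamate concentration determined daily from a glutamate concentration-response curve. Cells were HEK293/GLAST clones expressing mGluR5, dye-loaded at 25 °C for 45–60 min in HEPES-buffered HBSS; vehicle control was 0.3% DMSO.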
For the compound `O=c1c2ccc(C#Cc3ccccn3)cc2nc2n1CC1CC21` (stereo not shown) [Example 4.27, 4-(pyridin-2-ylethynyl)-9,9a-dihydro-1H-cyclopropa[3,4]pyrrolo[2,1-b]quinazolin-7(1aH)-one], the EC50 was in the range of 30 to 100 nM.

With `C=C1CCc2nc3cc(C#Cc4cccc(F)c4)ccc3c(=O)n2C1` [Example 4.28, 3-((3-fluorophenyl)ethynyl)-8-methylene-8,9-dihydro-6H-pyrido[2,1-b]quinazolin-11(7H)-one], the EC50 fell in the range of 10 to 30 nM.

Turning to `CN(C)C1CCc2nc3cc(C#Cc4cccc(F)c4)ccc3c(=O)n2C1` (stereo not shown) [Example 4.30, 8-(dimethylamino)-3-((3-fluorophenyl)ethynyl)-8,9-dihydro-6H-pyrido[2,1-b]quinazolin-11(7H)-one], the EC50 lay within 100 to 300 nM.

`O=c1c2ccc(C#Cc3cccc(F)c3)cc2nc2n1CC(CO)CC2` (stereo not shown) [Example 4.31, 3-((3-fluorophenyl)ethynyl)-8-(hydroxymethyl)-8,9-dihydro-6H-pyrido[2,1-b]quinazolin-11(7H)-one]: the half-maximal effective concentration (EC50) was less than 10 nM.

With `O=c1c2ccc(C#Cc3ccccn3)cc2nc2n1CC(CO)CC2` (stereo not shown) [Example 4.32, 8-(hydroxymethyl)-3-(pyridin-2-ylethynyl)-8,9-dihydro-6H-pyrido[2,1-b]quinazolin-11(7H)-one], the EC50 lay within 100 to 300 nM.

`COCC1CCc2nc3cc(C#Cc4cccc(F)c4)ccc3c(=O)n2C1` (stereo not shown) [Example 4.33, 3-((3-fluorophenyl)ethynyl)-8-(methoxymethyl)-8,9-dihydro-6H-pyrido[2,1-b]quinazolin-11(7H)-one]: the EC50 was less than 10 nM.

In the case of `COCC1CCc2nc3cc(C#Cc4ccccn4)ccc3c(=O)n2C1` (stereo not shown) [Example 4.34, 8-(methoxymethyl)-3-(pyridin-2-ylethynyl)-8,9-dihydro-6H-pyrido[2,1-b]quinazolin-11(7H)-one], the EC50 fell in the range of 10 to 30 nM.

`CN(C)CC1CCc2nc3cc(C#Cc4cccc(F)c4)ccc3c(=O)n2C1` (stereo not shown) [Example 4.36, 8-((dimethylamino)methyl)-3-((3-fluorophenyl)ethynyl)-8,9-dihydro-6H-pyrido[2,1-b]quinazolin-11(7H)-one]: the EC50 was 300 to 1000 nM.

Turning to `O=c1c2ccc(C#Cc3ccccn3)cc2nc2n1CCC(CO)C2` (stereo not shown) [Example 4.37, 7-(hydroxymethyl)-3-(pyridin-2-ylethynyl)-8,9-dihydro-6H-pyrido[2,1-b]quinazolin-11(7H)-one], the EC50 was 30 to 100 nM.

For the compound `CC1(C)Cn2c(nc3cc(C#Cc4ccccn4)ccc3c2=O)CO1` [Example 4.40, 3,3-dimethyl-9-(pyridin-2-ylethynyl)-3,4-dihydro-[1,4]oxazino[3,4-b]quinazolin-6(1H)-one], the EC50 lay in the range of 10 to 30 nM.

As to `O=c1c2ccc(C#Cc3ccccn3)cc2nc2n1CC(F)(F)CC2` [Example 4.42, 8,8-difluoro-3-(pyridin-2-ylethynyl)-8,9-dihydro-6H-pyrido[2,1-b]quinazolin-11(7H)-one], the EC50 was in the range of 10 to 30 nM.

Turning to `O=c1c2ccc(C#Cc3ccccn3)cc2nc2n1CCC1CC21` (stereo not shown) [Example 4.43, 8-(pyridin-2-ylethynyl)-1,2,3,10b-tetrahydrocyclopropa[3,4]pyrido[2,1-b]quinazolin-5(1aH)-one], the EC50 was in the range of 10 to 30 nM.

In the case of `CC1(C)Cn2c(nc3cc(C#Cc4ccccn4)ccc3c2=O)C(F)(F)C1` [Example 4.44, 6,6-difluoro-8,8-dimethyl-3-(pyridin-2-ylethynyl)-8,9-dihydro-6H-pyrido[2,1-b]quinazolin-11(7H)-one], the EC50 is less than 10 nM.

As for `CC1(O)CCc2nc3cc(C#Cc4ccccn4)ccc3c(=O)n2C1` (stereo not shown) [Example 4.45, 8-hydroxy-8-methyl-3-(pyridin-2-ylethynyl)-8,9-dihydro-6H-pyrido[2,1-b]quinazolin-11(7H)-one], the EC50 fell in the range of 100 to 300 nM.

Take `COC1(C)CCc2nc3cc(C#Cc4ccccn4)ccc3c(=O)n2C1` (stereo not shown) [Example 4.46, 8-methoxy-8-methyl-3-(pyridin-2-ylethynyl)-8,9-dihydro-6H-pyrido[2,1-b]quinazolin-11(7H)-one]: the EC50 fell in the range of 10 to 30 nM.

On to `CC1(C)CC(F)c2nc3cc(C#Cc4ccccn4)ccc3c(=O)n2C1` (stereo not shown) [Example 4.47, 6-fluoro-8,8-dimethyl-3-(pyridin-2-ylethynyl)-8,9-dihydro-6H-pyrido[2,1-b]quinazolin-11(7H)-one], for which the EC50 is less than 10 nM.

On to `O=c1c2ccc(C#Cc3ccccn3)cc2nc2n1C1CCC2CC1` [Example 4.48, 3-(pyridin-2-ylethynyl)-8,9-dihydro-6H-6,9-ethanopyrido[2,1-b]quinazolin-11(7H)-one], for which the EC50 is less than 10 nM.

As for `CC12CCCN1Cc1nc3cc(C#Cc4ccccn4)ccc3c(=O)n1C2` (stereo not shown) [Example 4.49, 13a-methyl-8-(pyridin-2-ylethynyl)-2,3,13,13a-tetrahydro-1H-pyrrolo[1′,2′:4,5]pyrazino[2,1-b]quinazolin-11 (5H)-one], the EC50 lay in the range of 30 to 100 nM.

With `CN1CCn2c(nc3cc(C#Cc4ccc(F)cc4)ccc3c2=O)C1` [Example 5.3, 9-((4-fluorophenyl)ethynyl)-2-methyl-3,4-dihydro-1H-pyrazino[2,1-b]quinazolin-6(2H)-one], the EC50 fell in the range of 10 to 30 nM.

Regarding `CN1CCn2c(nc3cc(C#Cc4cccc(F)c4)ccc3c2=O)C1` [Example 5.4, 9-((3-fluorophenyl)ethynyl)-2-methyl-3,4-dihydro-1H-pyrazino[2,1-b]quinazolin-6(2H)-one], the EC50 is less than 10 nM.

For the compound `CN1CCn2c(nc3cc(C#Cc4ccccn4)ccc3c2=O)C1` [Example 5.5, 2-methyl-9-(pyridin-2-ylethynyl)-3,4-dihydro-1H-pyrazino[2,1-b]quinazolin-6(2H)-one], the EC50 was 100 to 300 nM.

As to `CCC(C)N1CCn2c(nc3cc(C#Cc4cccc(F)c4)ccc3c2=O)C1` (stereo not shown) [Example 5.6, 2-(sec-butyl)-9-((3-fluorophenyl)ethynyl)-3,4-dihydro-1H-pyrazino[2,1-b]quinazolin-6(2H)-one], the EC50 was in the range of 100 to 300 nM.

In the case of `O=c1c2ccc(C#Cc3cccc(F)c3)cc2nc2n1CCN(CCO)C2` [Example 5.8, 9-((3-fluorophenyl)ethynyl)-2-(2-hydroxyethyl)-3,4-dihydro-1H-pyrazino[2,1-b]quinazolin-6(2H)-one], the EC50 was 30 to 100 nM.

On to `COCCN1CCn2c(nc3cc(C#Cc4cccc(F)c4)ccc3c2=O)C1` [Example 5.9, 9-((3-fluorophenyl)ethynyl)-2-(2-methoxyethyl)-3,4-dihydro-1H-pyrazino[2,1-b]quinazolin-6(2H)-one], for which the EC50 is 100 to 300 nM.

Consider `O=c1c2ccc(C#Cc3cccc(F)c3)cc2nc2n1CCN(Cc1ccccc1)C2` [Example 5.10, 2-benzyl-9-((3-fluorophenyl)ethynyl)-3,4-dihydro-1H-pyrazino[2,1-b]quinazolin-6(2H)-one], for which the EC50 was in the range of 300 to 1000 nM.

For `CCCCN1CCn2c(nc3cc(C#Cc4cccc(F)c4)ccc3c2=O)C1` [Example 5.11, 2-butyl-9-((3-fluorophenyl)ethynyl)-3,4-dihydro-1H-pyrazino[2,1-b]quinazolin-6(2H)-one], the EC50 lay within 100 to 300 nM.

For the compound `CC1Cn2c(nc3cc(C#Cc4ccccn4)ccc3c2=O)CN1C` (stereo not shown) [Example 5.14, 2,3-dimethyl-9-(pyridin-2-ylethynyl)-3,4-dihydro-1H-pyrazino[2,1-b]quinazolin-6(2H)-one], the EC50 is 30 to 100 nM.

For the compound `CC1CN(C)Cc2nc3cc(C#Cc4ccccn4)ccc3c(=O)n21` (stereo not shown) [Example 5.15, 2,4-dimethyl-9-(pyridin-2-ylethynyl)-3,4-dihydro-1H-pyrazino[2,1-b]quinazolin-6(2H)-one], the EC50 was 30 to 100 nM.

As a reminder, the EC50 is the concentration at which the effect is half-maximal.

(Values after US10077243B2, “Compounds for treating disorders mediated by metabotropic glutamate receptor 5, and methods of use thereof” (Sunovion Pharmaceuticals Inc., priority 2009, dated 2018).)
